The test system of one series is Balb C mice. The series can be described thus: hair-growth activity after DHT treatment. The series is classed as in vivo. Conditions: observed on day 19 after hair removal; DHT 8 days, then 10 days treatment or none. An excerpt:
The hairs of the back portions of Balb C mice were removed and a hair loss-inducing substance, dihydrotestosterone (DHT, TCI Inc.) was applied for 8 days to induce […] stage before the proliferation of kerationcytes.

A further series concerns laminin. Briefly: laminin level in HaCaT cells (Laminin ELISA kit). In kind it is cell-based, human. Particulars: 1 μmole, FIG. 9. As to the method:
(§1) Furthermore, HaCaT cell line was treated with the acetyl-decapeptide of this invention (1 μg/ml) and the level of procollagen, one of indicators to show the improvement in skin wrinkle, was examined (FIG. 8). The level of procollagen was measured using Procollagen ELISA kit (Takara). For verifying effects on levels of laminin and hyaluronic acid, another indicator representing the improvement in skin wrinkle, HaCaT cell line was incubated with the acetyl-decapeptide of this invention (1 μmole) and levels of laminin and hyaluronic acid were measured using Laminin ELISA kit (CHEMICON, USA) and Hyaluronic acid ELISA kit (Echelon Biosciences Inc, USA), respectively (FIG. 9).

The subject of the next series is NIH-3T3 cell. Briefly: stability in 50 mM Tris-HCl at 37° C., residual activity by MTT assay. The series is classed as physicochemical. Conditions: 50 mM Tris-HCl pH 8.0, 37° C., days 0-100, relative to day 0, FIG. 5. How it is done: To evaluate stability of the purified acetyl decapeptide of Example 10, the decapeptide and acetyl decapeptide were dissolved in 50 mM Tris-HCl (pH 8.0) to a concentration of 10 μg/ml. A recombinant bFGF produced E. coli (Sigma-Aldrich) was prepared as a control in the same buffer to a concentration of 1 μg/ml. The prepared solutions were introduced into glass vials and kept to stand at 37° C. Afterwards, the solutions were taken on days 0, 1, 10, 25, 50, 75 and 100 and subjected to MTT assay (Scudiero, D. A., et al. Cancer Res. 48:4827-4833 (1988)) using NIH-3T3 cell (Korean Cell Line Bank) to determine residual activities of peptides and bFGF (FIG. 5). The results were given as relative values to the activity (100%) of sample taken on day 0.
In general terms: Tetrazolium assays rely on reduction of a dye to a coloured formazan, in cell work by metabolically active cells.

Another series has as its system HaCaT keratinocytes. Briefly: SRB colorimetric assay of HaCaT keratinocyte growth. The series is classed as cell-based, human. Conditions: 10 ng/ml or 1,000 ng/ml, 72 hr, FIGS. 6 and 7. As to the method: To analyze effects of peptides of this invention on proliferation of keratinocytes, SRB (Sulforhodamine B) calorimetric assay was carried out using HaCaT kerationcyte according to Rizzino et al method (Rizzino, et al. Cancer Res., 48:4266 (1988)). HaCaT ketatinocytes (The Korean Cell Line Bank) were cultured in 250 ml-flasks containing EMEM (Eagle's minimal essential media, Gibco, U.S.A.) supplemented with […] (fetal bovine serum). HaCaT ketatinocytes cultured were treated with 0.25% trypsin solution to detach cells from the bottom of culture flasks and centrifuged to collect cell pellets. Cells were resuspended in EMEM not containing FBS, its aliquot (4×10^3) cells was added to each well of 96-well plates and cultured under 7% CO2 for 24 hr at 37° C. After 24-hr culture, the medium was changed with a fresh medium not containing serum and cells were incubated with bFGF or the acetyl-decapeptide of Example 10 (10 ng/ml or 1,000 ng/ml) dissolved in 10% DMSO for 72 hr under the same conditions as described above. After removing supernatants, cells were washed once using PBS (phosphate buffered saline) and incubated with SRB solution (Sigma-Aldrich). Cells were washed with PBS and observed under a microscope to find cell viability. In addition, absorbance at 590 nm was measured to analyze cell proliferation (FIG. 6). […]
A general note: In SRB staining, fixed cells bind dye roughly in proportion to their protein.

The test system of series [1] is receptor of basic fibroblast growth factor. The series can be described thus: competitive binding assay with 125I-labeled bFGF on BHK cells. On the set-up: species or system hamster. Conditions: FIG. 3. As to the method: To examine the binding potency of the purified acetyl-decapepetide of Example 10 to the receptor of basic fibroblast growth factor, the competitive binding assay was carried out using baby hamster kidney cells (BHK, the Korean Cell Line Bank) and ^125I-labeled bFGF (Amersham) according to process proposed by Baird et al. (Baird, et al., Proc. Natl. Acad. Sci. USA, 85:2324-2328 (1988)). Cells were cultured in 48-well plates for tissue culture and washed with cold Ham's F12 medium containing 0.2% gelatin (Sigma-Aldrich). 200 fmol of ^125I-bFGF and 1-100 nmol of acetyl decapeptide were dissolved in 200 μl of buffer and incubated with cells for 2 hr. Following the collection of cells by centrifugation, the cell membranes were isolated using 0.1% Triton X-100 and the radioactivity of ^125I-bFGF bound to receptors on cell membrane was determined using a gamma scintillation counter (Packard, U.S.A) (FIG. 3).

The next series has as its system 3T3 fibroblast. The series can be described thus: [3H]-thymidine incorporation in 3T3 fibroblast. In kind it is cell-based. Particulars: 3T3 cells, 2 ng/ml serially diluted two-fold, FIG. 4. How it is done:
The biological activities of the purified acetyl-decapepetide of Example 10 were evaluated using 3T3 fibroblast (The Korean Cell Line Bank) according to Rizzino et al method to measure [^3H]-thymidine incorporation (Rizzino, et al. Cancer Res., 48:4266 (1988)). 3T3 cells were cultured in 250 ml-flasks containing EMEM (Eagle's minimal essential media, Gibco, U.S.A.) supplemented with […] (fetal bovine serum). 3T3 cells cultured were treated with 0.25% trypsin solution to detach cells from the bottom of culture flasks and centrifuged to collect cell pellets. Cells were resuspended in EMEM not containing FBS, its aliquot, 2×10^4 cells/0.3 ml medium was added to each well of 24-well plates and cultured under 7% CO2 for 24 hr at 37° C. 2 ng/ml of the acetyl decapeptide of this invention was serially diluted by two-fold using EMEM containing 0.2 (w/v) % bovine serum albumin and 0.3 ml of the diluted peptide was added to each well, followed by additional culturing under 7% CO2 for 6 hr at 37° C. Afterwards, 0.5 μCi of [^3H]-thymidine (Amersham, TRK 686, 68 Ci/mmol) was added to each well and incubated overnight. […] The dried filters were added along with 2 ml of scintillation cocktail to scintillation vials and allowed to stand for 30 min at room temperature, after which radioactivity incorporated into cells was determined using a scintillation counter (Beckman, U.S.A).

For the next series, the system named is procollagen. The series can be described thus: procollagen level in HaCaT cells (Procollagen ELISA kit). Particulars: 1 μg/ml, FIG. 8. The series is classed as cell-based, human. How it is done:
as §1
For orientation: An ELISA detects its analyte on a solid surface through an enzyme-linked reagent.

For a further series, the system named is hyaluronic acid. Briefly: hyaluronic acid level in HaCaT cells (Hyaluronic acid ELISA kit). The series is classed as cell-based, human. Conditions: 1 μmole, FIG. 9. How it is done:
as §1

Take `C[C@]12CCC(=O)C[C@@H]1CC[C@@H]1[C@@H]2CC[C@]2(C)[C@@H](O)CC[C@@H]12` [DHT, dihydrotestosterone]: in the series on Balb C mice, the hair growth result is listed as “hair growth was barely observed”.
Consider Ac-YRSRKYTSWY-OH [acetyl decapeptide], for which the level of laminin entry with laminin was “induce the elevation of levels of laminin and hyaluronic acid”. In the series with NIH-3T3 cell, the “residual activity over time (stability)” value was “excellent stability”. In the series on HaCaT keratinocytes, the “cell viability / proliferation of HaCaT keratinocytes” value was “much higher cell viability than control”. Besides, the “binding to bFGF receptor in competition with 125I-bFGF” value in series [1] (200 fmol 125I-bFGF, 1-100 nmol peptide, 2 hr) is on record as “binds to bFGF receptor in a competitive manner with bFGF”. Besides, in series [1], the “binding potency to bFGF receptor” value is “higher binding potency”. The “[3H]-thymidine incorporation into fibroblasts” value in the series with 3T3 fibroblast is “promotes thymidine incorporation into fibroblasts in a dose-dependent fashion”. In addition, the “level of procollagen in cells” value in the series on procollagen is “increased in a time-dependent manner”. In the series with hyaluronic acid, the “level of hyaluronic acid” value is “induce the elevation of levels of laminin and hyaluronic acid”.
Turning to “decapeptide: unprotected bFGF-derived decapeptide, presumably the amino acid sequence of SEQ ID NO:1 (YRSRKYTSWY) (peptide having functions and actions of basic fibroblast growth factor)”, the “residual activity over time (stability)” value with NIH-3T3 cell is listed as “not to be decreased over time”.
With “recombinant bFGF: recombinant bFGF produced E. coli (Sigma-Aldrich), prepared as a control”, in the series with NIH-3T3 cell, the “residual activity over time (stability)” value is “sharply decreased with the lapse of time”.

Source of the values: US7939495B2, “Method for improving skin conditions” (Caregen Co., Ltd, priority 2005, dated 2011).
